Target: T1, Aminopeptidase B (Mus musculus, UniProt Q8VCT3)
T1 sequence (Q8VCT3 whole entry): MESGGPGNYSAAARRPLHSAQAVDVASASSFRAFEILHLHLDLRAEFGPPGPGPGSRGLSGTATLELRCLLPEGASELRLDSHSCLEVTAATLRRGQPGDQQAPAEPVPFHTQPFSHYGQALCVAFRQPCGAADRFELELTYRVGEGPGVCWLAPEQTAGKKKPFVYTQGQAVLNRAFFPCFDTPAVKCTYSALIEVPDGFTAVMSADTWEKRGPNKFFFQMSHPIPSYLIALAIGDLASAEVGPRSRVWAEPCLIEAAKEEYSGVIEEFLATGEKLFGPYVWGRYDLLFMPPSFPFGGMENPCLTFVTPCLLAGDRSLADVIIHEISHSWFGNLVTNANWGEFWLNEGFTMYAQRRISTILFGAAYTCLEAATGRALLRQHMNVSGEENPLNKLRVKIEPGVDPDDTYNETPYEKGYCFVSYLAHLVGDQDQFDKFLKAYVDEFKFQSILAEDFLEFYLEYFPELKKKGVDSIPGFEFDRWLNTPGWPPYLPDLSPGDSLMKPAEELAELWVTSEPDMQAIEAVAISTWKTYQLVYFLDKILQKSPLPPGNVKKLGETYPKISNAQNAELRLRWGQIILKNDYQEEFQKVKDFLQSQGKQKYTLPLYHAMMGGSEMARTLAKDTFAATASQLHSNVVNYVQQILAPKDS

In the case of `CC(C)C[C@H](NC(=O)[C@@H](O)[C@H](N)Cc1ccccc1)C(=O)O`, the IC50 is reported as 160 µM.

Source: BindingDB's records for doi:10.1021/bi00419a019 (University of Wisconsin, 1988)
